This passage reports IC50, inhibition and CC50 results from ChEMBL document CHEMBL4330117, “Synthesis, biological evaluation and molecular docking of benzimidazole grafted benzsulfamide-containing pyrazole ring derivatives as novel tubulin polymerization inhibitors” (Bioorg Med Chem, 2019).

Molecules are shown by their SMILES.

The test system of the first series is A549. In words: Antiproliferative activity against human A549 cells after 24 hrs by MTT assay. Type of series: functional, cell-based. Conditions: A549, 24 h.
`Cc1ccc(-c2nn(-c3ccccc3)cc2-c2nc3ccccc3n2S(=O)(=O)c2cc(C)ccc2C)cc1` came in with an IC50 of 0.27 µM.

Consider `Cc1ccc(C)c(S(=O)(=O)n2c(-c3cn(-c4ccccc4)nc3-c3ccc(F)cc3)nc3ccccc32)c1`, for which the IC50 was 0.2 µM.

On to `O=S(=O)(c1ccc(Cl)cc1)n1c(-c2cn(-c3ccccc3)nc2-c2ccc(F)cc2)nc2ccccc21`, for which inhibition was half-maximal at 3.17 µM (IC50).

Molecule `Cc1ccc(-c2nn(-c3ccccc3)cc2-c2nc3ccccc3n2S(=O)(=O)c2ccc(C(F)(F)F)cc2)cc1` returned an IC50 of 1.46 µM.

As for `O=[N+]([O-])c1ccc(S(=O)(=O)n2c(-c3cn(-c4ccccc4)nc3-c3ccc(C(F)(F)F)cc3)nc3ccccc32)cc1`, the midpoint of inhibition, the IC50, lay at 0.79 µM.

As to `COc1cc2c(c(OC)c1OC)-c1ccc(OC)c(=O)cc1[C@@H](NC(C)=O)CC2` [COLCHICINE], the IC50 stood at 0.22 µM.

Molecule `COc1ccc(S(=O)(=O)n2c(-c3cn(-c4ccccc4)nc3-c3ccc(C(F)(F)F)cc3)nc3ccccc32)cc1` had an IC50 of 0.17 µM.

`O=S(=O)(c1ccc(F)cc1)n1c(-c2cn(-c3ccccc3)nc2-c2ccc(C(F)(F)F)cc2)nc2ccccc21` gave an IC50 of 1.74 µM.

Consider `Cc1ccc(-c2nn(-c3ccccc3)cc2-c2nc3ccccc3n2S(=O)(=O)c2ccc(Cl)cc2)cc1`, for which the midpoint of inhibition, the IC50, lay at 3.55 µM.

For the next series, the system named is HeLa. Kind of series: Antiproliferative activity against human HeLa cells after 24 hrs by MTT assay. Type of series: functional, cell-based.
Conditions: not given
The molecule `Cc1ccc(-c2nn(-c3ccccc3)cc2-c2nc3ccccc3n2S(=O)(=O)c2cc(C)ccc2C)cc1` displayed an IC50 of 0.37 µM.

Molecule `Cc1ccc(C)c(S(=O)(=O)n2c(-c3cn(-c4ccccc4)nc3-c3ccc(F)cc3)nc3ccccc32)c1` came in with an IC50 of 0.32 µM.

The molecule `O=S(=O)(c1ccc(Cl)cc1)n1c(-c2cn(-c3ccccc3)nc2-c2ccc(F)cc2)nc2ccccc21` came in with an IC50 of 3.45 µM.

`Cc1ccc(-c2nn(-c3ccccc3)cc2-c2nc3ccccc3n2S(=O)(=O)c2ccc(C(F)(F)F)cc2)cc1` came in with an IC50 of 1.52 µM.

In turn, `O=[N+]([O-])c1ccc(S(=O)(=O)n2c(-c3cn(-c4ccccc4)nc3-c3ccc(C(F)(F)F)cc3)nc3ccccc32)cc1` came in with an IC50 of 0.95 µM.

Take `COc1cc2c(c(OC)c1OC)-c1ccc(OC)c(=O)cc1[C@@H](NC(C)=O)CC2` [COLCHICINE]: half-maximal inhibition (IC50) was put at 0.36 µM.

For `COc1ccc(S(=O)(=O)n2c(-c3cn(-c4ccccc4)nc3-c3ccc(C(F)(F)F)cc3)nc3ccccc32)cc1`, half-maximal inhibition (IC50) required 0.25 µM.

With `O=S(=O)(c1ccc(F)cc1)n1c(-c2cn(-c3ccccc3)nc2-c2ccc(C(F)(F)F)cc2)nc2ccccc21`, the IC50 came to 2.19 µM. Compared with the last molecule, the IC50 is about 8.8-fold higher.

`Cc1ccc(-c2nn(-c3ccccc3)cc2-c2nc3ccccc3n2S(=O)(=O)c2ccc(Cl)cc2)cc1` yielded an IC50 of 4.06 µM.

A further series has as its system HepG2. In words: Antiproliferative activity against human HepG2 cells after 24 hrs by MTT assay. Type of series: functional, cell-based. Conditions: HepG2, 24 h.
`Cc1ccc(-c2nn(-c3ccccc3)cc2-c2nc3ccccc3n2S(=O)(=O)c2cc(C)ccc2C)cc1` gave an IC50 of 0.46 µM.

Molecule `Cc1ccc(C)c(S(=O)(=O)n2c(-c3cn(-c4ccccc4)nc3-c3ccc(F)cc3)nc3ccccc32)c1` had an IC50 of 0.41 µM.

Molecule `O=S(=O)(c1ccc(Cl)cc1)n1c(-c2cn(-c3ccccc3)nc2-c2ccc(F)cc2)nc2ccccc21` had an IC50 of 4.23 µM.

`Cc1ccc(-c2nn(-c3ccccc3)cc2-c2nc3ccccc3n2S(=O)(=O)c2ccc(C(F)(F)F)cc2)cc1` returned an IC50 of 1.93 µM. This IC50 is about 2.2-fold lower than that of the molecule before.

`O=[N+]([O-])c1ccc(S(=O)(=O)n2c(-c3cn(-c4ccccc4)nc3-c3ccc(C(F)(F)F)cc3)nc3ccccc32)cc1`: the IC50 turned out to be 1.07 µM. This IC50 lies about 1.8-fold lower than the previous one.

`COc1cc2c(c(OC)c1OC)-c1ccc(OC)c(=O)cc1[C@@H](NC(C)=O)CC2` [COLCHICINE] displayed an IC50 of 0.42 µM.

Take `COc1ccc(S(=O)(=O)n2c(-c3cn(-c4ccccc4)nc3-c3ccc(C(F)(F)F)cc3)nc3ccccc32)cc1`: it took 0.37 µM to reach half-maximal inhibition (IC50).

As to `O=S(=O)(c1ccc(F)cc1)n1c(-c2cn(-c3ccccc3)nc2-c2ccc(C(F)(F)F)cc2)nc2ccccc21`, the IC50 was determined as 2.73 µM.

The molecule `Cc1ccc(-c2nn(-c3ccccc3)cc2-c2nc3ccccc3n2S(=O)(=O)c2ccc(Cl)cc2)cc1` returned an IC50 of 5.52 µM. This IC50 is about 2-fold higher than that of the molecule before.

A further series deals with MCF7. Kind of series: Antiproliferative activity against human MCF7 cells after 24 hrs by MTT assay. Type of series: functional, cell-based. Particulars: MCF7, 24 h.
As to `Cc1ccc(-c2nn(-c3ccccc3)cc2-c2nc3ccccc3n2S(=O)(=O)c2cc(C)ccc2C)cc1`, the IC50 is 0.51 µM.

As for `Cc1ccc(C)c(S(=O)(=O)n2c(-c3cn(-c4ccccc4)nc3-c3ccc(F)cc3)nc3ccccc32)c1`, the IC50 worked out at 0.43 µM. This IC50 and that of the molecule before are within 1.5-fold of each other.

With `O=S(=O)(c1ccc(Cl)cc1)n1c(-c2cn(-c3ccccc3)nc2-c2ccc(F)cc2)nc2ccccc21`, the IC50 was 4.96 µM.

`Cc1ccc(-c2nn(-c3ccccc3)cc2-c2nc3ccccc3n2S(=O)(=O)c2ccc(C(F)(F)F)cc2)cc1`: half-maximal inhibition (IC50) required 2.34 µM.

Molecule `O=[N+]([O-])c1ccc(S(=O)(=O)n2c(-c3cn(-c4ccccc4)nc3-c3ccc(C(F)(F)F)cc3)nc3ccccc32)cc1` gave an IC50 of 1.13 µM. Compared with the last molecule, the IC50 is about 2.1-fold lower.

As for `COc1cc2c(c(OC)c1OC)-c1ccc(OC)c(=O)cc1[C@@H](NC(C)=O)CC2` [COLCHICINE], half-maximal inhibition (IC50) was put at 0.44 µM.

As to `COc1ccc(S(=O)(=O)n2c(-c3cn(-c4ccccc4)nc3-c3ccc(C(F)(F)F)cc3)nc3ccccc32)cc1`, the concentration for half-maximal inhibition (IC50) was 0.42 µM. This IC50 and that of the molecule before are within 1.5-fold of each other.

In turn, `O=S(=O)(c1ccc(F)cc1)n1c(-c2cn(-c3ccccc3)nc2-c2ccc(C(F)(F)F)cc2)nc2ccccc21` gave a half-maximal inhibitory concentration (IC50) of 3.12 µM. Against the preceding molecule, the IC50 is about 7.4-fold higher.

`Cc1ccc(-c2nn(-c3ccccc3)cc2-c2nc3ccccc3n2S(=O)(=O)c2ccc(Cl)cc2)cc1` showed an IC50 of 5.93 µM.

The next series concerns the target T1, Tubulin (Bos taurus) (UniProt Q6B856+Q862L2+Q862F3). Kind of series: Inhibition of [3H]colchicine binding to bovine brain tubulin at 5 uM.
Conditions: not given
Consider `Cc1ccc(-c2nn(-c3ccccc3)cc2-c2nc3ccccc3n2S(=O)(=O)c2cc(C)ccc2C)cc1`, for which the inhibition worked out at 82%.

On to `Cc1ccc(C)c(S(=O)(=O)n2c(-c3cn(-c4ccccc4)nc3-c3ccc(F)cc3)nc3ccccc32)c1`, for which the inhibition was 88%.

As to `O=S(=O)(c1ccc(Cl)cc1)n1c(-c2cn(-c3ccccc3)nc2-c2ccc(F)cc2)nc2ccccc21`, the inhibition came out at 48%.

With `Cc1ccc(-c2nn(-c3ccccc3)cc2-c2nc3ccccc3n2S(=O)(=O)c2ccc(C(F)(F)F)cc2)cc1`, the inhibition turned out to be 55%.

For the molecule `O=[N+]([O-])c1ccc(S(=O)(=O)n2c(-c3cn(-c4ccccc4)nc3-c3ccc(C(F)(F)F)cc3)nc3ccccc32)cc1`, the inhibition turned out to be 63%.

For `COc1ccc(S(=O)(=O)n2c(-c3cn(-c4ccccc4)nc3-c3ccc(C(F)(F)F)cc3)nc3ccccc32)cc1`, the inhibition amounted to 85%.

As to `O=S(=O)(c1ccc(F)cc1)n1c(-c2cn(-c3ccccc3)nc2-c2ccc(C(F)(F)F)cc2)nc2ccccc21`, the inhibition is 54%.

With `Cc1ccc(-c2nn(-c3ccccc3)cc2-c2nc3ccccc3n2S(=O)(=O)c2ccc(Cl)cc2)cc1`, the inhibition was 38%.

In a further series the target is T1, Tubulin (Bos taurus). Kind of series: Inhibition of vinblastine binding to bovine brain tubulin at 5 uM.
Conditions: not given
As to `Cc1ccc(-c2nn(-c3ccccc3)cc2-c2nc3ccccc3n2S(=O)(=O)c2cc(C)ccc2C)cc1`, the inhibition was 0.07%.

With `Cc1ccc(C)c(S(=O)(=O)n2c(-c3cn(-c4ccccc4)nc3-c3ccc(F)cc3)nc3ccccc32)c1`, the inhibition stood at 0.62%.

In the case of `O=S(=O)(c1ccc(Cl)cc1)n1c(-c2cn(-c3ccccc3)nc2-c2ccc(F)cc2)nc2ccccc21`, the inhibition was -2.09 to 2.7%.

Consider `Cc1ccc(-c2nn(-c3ccccc3)cc2-c2nc3ccccc3n2S(=O)(=O)c2ccc(C(F)(F)F)cc2)cc1`, for which the inhibition is 0.21%.

In the case of `O=[N+]([O-])c1ccc(S(=O)(=O)n2c(-c3cn(-c4ccccc4)nc3-c3ccc(C(F)(F)F)cc3)nc3ccccc32)cc1`, the inhibition worked out at 0.14%.

On to `COc1ccc(S(=O)(=O)n2c(-c3cn(-c4ccccc4)nc3-c3ccc(C(F)(F)F)cc3)nc3ccccc32)cc1`, for which the inhibition is 0.03%.

Consider `O=S(=O)(c1ccc(F)cc1)n1c(-c2cn(-c3ccccc3)nc2-c2ccc(C(F)(F)F)cc2)nc2ccccc21`, for which the inhibition came to 0.65%.

Regarding `Cc1ccc(-c2nn(-c3ccccc3)cc2-c2nc3ccccc3n2S(=O)(=O)c2ccc(Cl)cc2)cc1`, the inhibition was found to be 0.24%.

Tested on in another series: not listed separately
Kind of series: Cytotoxicity against HEK293T cells after 24 hrs by MTT assay. Type of series: cell-based, HEK-293T. Particulars: human.
`Cc1ccc(-c2nn(-c3ccccc3)cc2-c2nc3ccccc3n2S(=O)(=O)c2cc(C)ccc2C)cc1` showed a CC50 at 24 h of 82.2 µM.

`Cc1ccc(C)c(S(=O)(=O)n2c(-c3cn(-c4ccccc4)nc3-c3ccc(F)cc3)nc3ccccc32)c1` registered a CC50 at 24 h of 54.2 µM.

As to `O=S(=O)(c1ccc(Cl)cc1)n1c(-c2cn(-c3ccccc3)nc2-c2ccc(F)cc2)nc2ccccc21`, it took 93.1 µM to reach half-maximal cytotoxicity (CC50 at 24 h).

`Cc1ccc(-c2nn(-c3ccccc3)cc2-c2nc3ccccc3n2S(=O)(=O)c2ccc(C(F)(F)F)cc2)cc1`: half-maximal cytotoxicity (CC50 at 24 h) was put at 182 µM.

For `O=[N+]([O-])c1ccc(S(=O)(=O)n2c(-c3cn(-c4ccccc4)nc3-c3ccc(C(F)(F)F)cc3)nc3ccccc32)cc1`, the CC50 at 24 h turned out to be 163 µM.

`COc1cc2c(c(OC)c1OC)-c1ccc(OC)c(=O)cc1[C@@H](NC(C)=O)CC2` [COLCHICINE] showed a CC50 at 24 h of 129 µM.

In the case of `COc1ccc(S(=O)(=O)n2c(-c3cn(-c4ccccc4)nc3-c3ccc(C(F)(F)F)cc3)nc3ccccc32)cc1`, the CC50 at 24 h is > 300 µM.

`O=S(=O)(c1ccc(F)cc1)n1c(-c2cn(-c3ccccc3)nc2-c2ccc(C(F)(F)F)cc2)nc2ccccc21` had a CC50 at 24 h of 157 µM.

Take `Cc1ccc(-c2nn(-c3ccccc3)cc2-c2nc3ccccc3n2S(=O)(=O)c2ccc(Cl)cc2)cc1`: the CC50 at 24 h was 167 µM.

Tested on in another series: not listed separately
Kind of series: Cytotoxicity against mouse primary hepatocytes after 24 hrs by MTT assay. Type of series: cell-based, Hepatocyte.
Conditions: not given
`Cc1ccc(-c2nn(-c3ccccc3)cc2-c2nc3ccccc3n2S(=O)(=O)c2cc(C)ccc2C)cc1` displayed a CC50 at 24 h of 231 µM.

`Cc1ccc(C)c(S(=O)(=O)n2c(-c3cn(-c4ccccc4)nc3-c3ccc(F)cc3)nc3ccccc32)c1` came in with a CC50 at 24 h of 122 µM.

`O=S(=O)(c1ccc(Cl)cc1)n1c(-c2cn(-c3ccccc3)nc2-c2ccc(F)cc2)nc2ccccc21` showed a CC50 at 24 h of 231 µM.

For the molecule `Cc1ccc(-c2nn(-c3ccccc3)cc2-c2nc3ccccc3n2S(=O)(=O)c2ccc(C(F)(F)F)cc2)cc1`, the midpoint of cytotoxicity, the CC50 at 24 h, lay at 89.3 µM.

`O=[N+]([O-])c1ccc(S(=O)(=O)n2c(-c3cn(-c4ccccc4)nc3-c3ccc(C(F)(F)F)cc3)nc3ccccc32)cc1` yielded a CC50 at 24 h of 178 µM.

For `COc1cc2c(c(OC)c1OC)-c1ccc(OC)c(=O)cc1[C@@H](NC(C)=O)CC2` [COLCHICINE], the CC50 at 24 h is 153 µM.

In the case of `COc1ccc(S(=O)(=O)n2c(-c3cn(-c4ccccc4)nc3-c3ccc(C(F)(F)F)cc3)nc3ccccc32)cc1`, it took 87.4 µM to reach half-maximal cytotoxicity (CC50 at 24 h).

Turning to `O=S(=O)(c1ccc(F)cc1)n1c(-c2cn(-c3ccccc3)nc2-c2ccc(C(F)(F)F)cc2)nc2ccccc21`, the midpoint of cytotoxicity, the CC50 at 24 h, lay at 83.3 µM.

Turning to `Cc1ccc(-c2nn(-c3ccccc3)cc2-c2nc3ccccc3n2S(=O)(=O)c2ccc(Cl)cc2)cc1`, it took 216 µM to reach half-maximal cytotoxicity (CC50 at 24 h).
